Key:
nitrobacteria = assay: nitrification inhibition activity in air-dry soil with urea; settings: for Nitrification inhibition rate dN / Mass fraction of nitrate nitrogen in the sample solution ω1: 10.00 g air-dry soil, 0.10 g urea, 48 h; for Mass fraction of nitrate nitrogen in the sample solution ω1: control ω2=948.6
Method: 2. A method for determining nitrification inhibition activity is as follows. […] 4-iodopyrazole coordination compound prepared in Embodiment 1 were respectively weighed, and placed into 500 ml conical flasks respectively; 10.00 g of air-dry soil, 0.10 g of urea and 100 mL of phosphate buffer were added to each flask; the conical flasks were simultaneously place into a thermostatic culture oscillator (180 rpm) for oscillation for 48 h, and then the resulting solutions were filtered to determine mass fraction ω1 of nitrate nitrogen (including nitrite nitrogen) in the sample and the control sample solution respectively. Calculation of nitrification inhibition rate: the nitrification inhibition rate of binuclear ligands with different addition amounts was calculated, and the results are shown in Table 2. [formula] • where dN is nitrification inhibition rate (%); • ω1 is mass fraction of nitrate nitrogen (including nitrite nitrogen) in the sample; and • ω2 is mass fraction of nitrate nitrogen (including nitrite nitrogen) in the control sample, and ω2=948.6.

urease = urease (Canavalia ensiformis, UniProt P07374); settings: read-out: IC50 of urease inhibition; urease 10 KU/L, preincubated 1 h at 37° C., phosphate buffer pH 6.8 with 500 mM urea; modified Karber method
Chain of urease (P07374 whole entry, looked up): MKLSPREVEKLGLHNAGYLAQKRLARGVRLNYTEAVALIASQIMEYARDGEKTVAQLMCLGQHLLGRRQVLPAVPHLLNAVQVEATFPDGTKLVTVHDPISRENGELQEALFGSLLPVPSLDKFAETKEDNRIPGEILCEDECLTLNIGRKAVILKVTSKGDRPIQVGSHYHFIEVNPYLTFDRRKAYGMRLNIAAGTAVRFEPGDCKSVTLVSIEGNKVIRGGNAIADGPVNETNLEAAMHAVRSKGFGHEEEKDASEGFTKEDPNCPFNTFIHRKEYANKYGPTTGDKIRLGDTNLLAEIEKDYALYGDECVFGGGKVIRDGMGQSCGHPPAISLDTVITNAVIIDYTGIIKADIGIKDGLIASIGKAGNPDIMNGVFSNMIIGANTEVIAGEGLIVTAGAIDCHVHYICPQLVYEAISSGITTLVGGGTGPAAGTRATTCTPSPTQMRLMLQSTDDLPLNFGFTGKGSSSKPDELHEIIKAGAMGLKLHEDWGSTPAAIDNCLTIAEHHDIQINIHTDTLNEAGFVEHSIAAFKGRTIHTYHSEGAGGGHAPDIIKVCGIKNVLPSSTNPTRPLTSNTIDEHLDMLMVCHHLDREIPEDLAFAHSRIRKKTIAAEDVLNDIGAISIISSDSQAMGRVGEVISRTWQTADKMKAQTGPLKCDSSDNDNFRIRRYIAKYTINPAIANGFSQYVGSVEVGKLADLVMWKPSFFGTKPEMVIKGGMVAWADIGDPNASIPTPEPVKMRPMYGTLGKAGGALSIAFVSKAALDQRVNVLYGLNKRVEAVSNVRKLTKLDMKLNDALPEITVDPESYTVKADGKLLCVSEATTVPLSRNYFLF
Method: An endpoint of the testing was determined by the phenol red indicator, and the testing was stopped when the solution changed from pale yellow to red.

Ic1cn[nH]c1.Ic1cn[nH]c1.[Cl][Cu][Cl] [copper chloride-linked 4-iodopyrazole coordination compound]
nitrification inhibition rates (nitrobacteria; all addition amounts of Table 2): greater than 9%
Nitrification inhibition rate dN (nitrobacteria; mass of compound 0.03 g): 9.16%
Mass fraction of nitrate nitrogen in the sample solution ω1 (nitrobacteria; mass of compound 0.03 g): 861.7
Nitrification inhibition rate dN (nitrobacteria; mass of compound 0.05 g): 9.79%
Mass fraction of nitrate nitrogen in the sample solution ω1 (nitrobacteria; mass of compound 0.05 g): 855.8
Nitrification inhibition rate dN (nitrobacteria; mass of compound 0.07 g): 11.09%
Mass fraction of nitrate nitrogen in the sample solution ω1 (nitrobacteria; mass of compound 0.07 g): 843.4
Nitrification inhibition rate dN (nitrobacteria; mass of compound 0.10 g): 15.57%
Mass fraction of nitrate nitrogen in the sample solution ω1 (nitrobacteria; mass of compound 0.10 g): 800.9
IC50 (urease): 2580 ± 40 nM

— patent US12435010B1, “4-iodopyrazole coordination compound and preparation method and use thereof” (Institute of Applied Ecology, Chinese Academy of Sciences, priority 2024, dated 2025)
